EC50 data for two compounds are collected here from ChEMBL document CHEMBL5725651, “Guanine analogs as telomerase substrates and telomere length affectors” (2018).

This assay in a line: HT3 cells were treated for three days with increasing concentrations of PMPG-diisopropyloxy ester ranging from 0.2 μM to 20 μM. Cells (HT3 RPMI+10% PBS) were incubated with compound for 24 hr after which PSTS primer (phosphorothioate-d(AATCCGTCGAGCAGAGTT (SEQ ID NO: 6) containing a 5′ Cy-5 label) (7.5 μM) and fresh compound are added for an additional 24 hr. Cells were lysed and endogenous telomerase inactivated by heating (15 min, 75° C.). Products were amplified by 30 cycles of PCR under TRAP conditions set forth above and quantified. To be noted: HT-3.

In the case of `C=C(COCP(=O)(OCOC(=O)OC(C)C)OCOC(=O)OC(C)C)Cn1cnc2c(=O)[nH]c(N)nc21`, the EC50 is 10.8 µM.
Regarding `CC(C)OC(=O)OCOP(=O)(COC(C)Cn1cnc2c(=O)[nH]c(N)nc21)OCOC(=O)OC(C)C` (configuration not stated), the EC50 was 2.15 µM.
